Results: patent publication US10428030B2, “Heterocycle derivatives and their use for the treatment of CNS disorders” (Trillium Therapeutics Inc., priority 2015, dated 2019)

Tests used:
[1] = tested on: Male Sprague-Dawley rats; test: Maximal Electroshock Seizure (MES) rat model; assay type: in vivo; settings: po, 4 hours
Method: Male, Sprague-Dawley rats and CD-1 mice were used for all studies. All animals were allowed ad-lib access to food and water except during experiment. Animals were housed within an animal vivarium maintained under a 12 h light:dark cycle (lights on: 07:00 h), and all experiments were conducted in the animals light phase. For all experiments, animals were habituated to the vivarium for a minimum of 72 h before experimentation. The experimental procedures used in the present investigation were conducted under the Association for Assessment and Accreditation of Laboratory Animal Care (AAALAC) and the Canadian Council on Animal Care (CCAC) guidelines.
All compounds were sonicated in 5% Tween 80® in saline or methylcellulose 0.5% (wgt/vol), using MC and sterile water and injected in a dose volume of 5 ml/kg or 10 ml/kg (rat), and 10 ml/kg (mouse). Drugs were administered by either the oral, intraperitoneal or intravenous route.
Male Sprague-Dawley rats of body weight 80-100 g were used for these studies. Each experiment was conducted over 3 consecutive days. On day 1 and 2, each rat received a single electrical stimulus (150 mA, 0.2 s duration, 60 Hz) via corneal electrodes moistened with saline (Shock stimulator type 221: Harvard apparatus). […] Typically this reflected approximately 70-90% of the initial group.
(§1) On the test day following a defined drug pretreatment period, rats received a maximal electroshock (150 mA, 0.2 s duration, 60 Hz) via corneal electrodes. Protection was defined as absence of a full tonic seizure within 10 s of stimulus delivery. Twenty minutes before the MES procedure, the animals were tested on a fixed speed rotorod (best score from 3 trials at 8 r.p.m, trial duration=60 s) to give an early assessment of drug effect on gross motor function.

[2] = Fixed speed rotorod, gross motor function (rat); settings: male, Sprague-Dawley, in vivo, po
Method: as §1

[3] = tested on: mice; test: Intravenous Metrazol Seizure Threshold Test (i.v. MET); assay type: in vivo; settings: mouse, ip, i.v. Metrazol infusion (FIG. 1)
Method: The iv-Met test provides a measure of a test substance's ability to raise or lower seizure threshold. Two doses of the test compound are usually employed in this test, the MES ED50 and the TD50 determined following ip quantification testing in mice. Randomly selected mice are injected intraperitoneally 2 minutes apart with either the vehicle or the two test drug doses, maintaining the same order of dosing until 30 mice have been injected. At the previously determined TPE, 0.5% heparinized Metrazol solution is infused at a constant rate of 0.34 ml/min into a lateral tail vein of an unrestrained mouse. Infusion is by means of a Sage syringe pump (model 341 A) and a 10 ml B-D plastic syringe connected to a length of No 20 P.E. tubing. A 27 gauge stainless steel needle with the hub removed is connected to the tubing and inserted into a vein, bevel side up and secured to the tail by a narrow piece of adhesive tape. For the placement of the needle, the mouse is restrained in a cone shaped device with only the tail exposed. The rate selector is set on 4, and the switch is set at ml/min. […] The time in seconds from the start of the infusion to the appearance of the “first twitch” and the onset of sustained clonus is recorded. […]
The mean and standard error for each of the 3 groups and the significance of the difference between the test groups and the control are calculated.

[4] = tested on: male CF-1 mouse; test: Mouse formalin test (pain); assay type: in vivo; settings: 41 mg/kg i.p.; most pronounced in second (late) phase
Method: The formalin test is performed according to the method of Tjolsen et al. Pain, 1992. 51(1). An injection of 0.5% formalin (Sigma) is made into the planter region of the right hind paw of an adult (26-30 g) male CF-1 mouse. Sub-dermal formalin injection elicits a distinct behavioral profile characterized by the mouse licking the affected paw. The behavior is characteristically biphasic in nature. For example, immediately following the injection the mouse licks the paw intensely for approximately 10 min. This is referred to as phase 1 (or, the acute phase) and is followed by a brief latent period (<5 minutes) where there is little behavioral activity. A more prolonged period of about 20-30 min of activity then ensues, which constitutes phase 2 (or, the inflammatory phase). […] The cumulative length of licking for each 2-min time period is measured. […] The area under the curve (AUG) is calculated for both the acute and inflammatory phases of the licking response for individual animals in both the test and control groups. The percent of control AUG for drug-treated animal groups is determined using the Graph-Pad Prism Version 3.03. The total AUG for each phase of the test group is also calculated and converted to percentage of total AUG of control for each phase. The average and S.E.M. for both the drug treated and control percentages are calculated and tested for significant difference.

For `O=C1COc2cc(OCc3ccc(OC(F)F)cc3)ccc2N1` [Compound I(B)], the ED50 [1] was 20.1 ± 0.7 mg/kg, the ED50 at 4 hours [2] was > 500 mg/kg and the “effect on seizure threshold” value [3] was “dose-dependently increased the seizure threshold”. For the same compound, the “number of paw licks” value [4] was “significant decrease in the number of paw licks”.
